Measured values: patent US20060210520A1, “Macadamia lipid based surfactants and derivatives and process for preparing same” (Finetex, Inc., priority 2005, published 2006)

Experiment: Analytical results of the Macadamia esters (Table I)
Format: physicochemical
Protocol: An analysis of the esters was conducted as to appearance, color, surface tension, spreading coefficient, freezing point, percentage of water, refractive index, and specific gravity.

Substance: C12-15 Pareth-7 Macadamiate
- Spreading Coeffecient (° C.): 31.50
- Viscosity (CPS): 100 CPS
- Interfacial Tension (25° C.): 8.50
- Surface Tension (25° C.): 32.00

Substance: Ceteareth-4 Macadamiate
- Spreading Coeffecient (° C.): 32.15
- Viscosity (CPS): 120 CPS
- Interfacial Tension (25° C.): 8.35
- Surface Tension (25° C.): 32.50

Substance: Isostearyl Macadamiate
- Spreading Coeffecient (° C.): 32.75
- Viscosity (CPS): 40 CPS
- Interfacial Tension (25° C.): 7.75
- Surface Tension (25° C.): 31.5

Substance: PPG-3 Myristyl Ether Macadamiate
- Spreading Coeffecient (° C.): 34.00
- Viscosity (CPS): 80 CPS
- Interfacial Tension (25° C.): 7.00
- Surface Tension (25° C.): 31.0
